# Assay results reported in the supplement of paper PMC10307832.
# Key:
# Assay in all cases: relative viability (nuclei count vs DMSO), 5 days (fraction); higher = more cells survive
# NCI-H1993 = system: NCI-H1993
# Method in brief: (§1)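 Medians of duplicate plates are given as relative viability. That measure is the nuclei count in treated wells divided by the count in vehicle wells. Counts were taken on 4× images of lung cancer cell lines in 1536-well plates, 5 days after pin-tool dosing the day after seeding with one drug alone or a fixed anchor-drug dose plus five library-drug doses (not always all listed) in √10 steps.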
# NCI-H2342 = system: NCI-H2342
# Method in brief: as §1
# ChaGo-K-1 = system: ChaGo-K-1
# Method in brief: as §1
# NCI-H2405 = system: NCI-H2405
# Method in brief: as §1
# NCI-H23 = system: NCI-H23
# Method in brief: as §1
# NCI-H1734 = system: NCI-H1734
# Method in brief: as §1
# NCI-H2228 = system: NCI-H2228
# Method in brief: as §1
# NCI-H1975 = system: NCI-H1975
# Method in brief: as §1
# HCC-78 = system: HCC-78
# Method in brief: as §1
# NCI-H1355 = system: NCI-H1355
# Method in brief: as §1
# LCLC-97TM1 = system: LCLC-97TM1
# Method in brief: as §1
# NCI-H2126 = system: NCI-H2126
# Method in brief: as §1
# NCI-H596 = system: NCI-H596
# Method in brief: as §1
# HOP-62 = system: HOP-62
# Method in brief: as §1
# NCI-H358 = system: NCI-H358
# Method in brief: as §1
# NCI-H1703 = system: NCI-H1703
# Method in brief: as §1
# NCI-H460 = system: NCI-H460
# Method in brief: as §1
# PC-3 [JPC-3] = system: PC-3 [JPC-3]
# Method in brief: as §1
# LK-2 = system: LK-2
# Method in brief: as §1
# NCI-H1944 = system: NCI-H1944
# Method in brief: as §1
# NCI-H1648 = system: NCI-H1648
# Method in brief: as §1
# NCI-H1755 = system: NCI-H1755
# Method in brief: as §1
# NCI-H1650 = system: NCI-H1650
# Method in brief: as §1
# NCI-H727 = system: NCI-H727
# Method in brief: as §1
compound,measurement,setting,value
Nc1cccc2c1CN(C1CCC(=O)NC1=O)C2=O (configuration not stated) [Lenalidomide] + O=C(c1cc(Cc2n[nH]c(=O)c3ccccc23)ccc1F)N1CCN(C(=O)C2CC2)CC1 [Olaparib] (partner 8 µM),relative viability,NCI-H1993; first compound 0.253 µM,0.897
same,relative viability,NCI-H1993; first compound 0.8 µM,1.42
same,relative viability,NCI-H1993; first compound 2.53 µM,1.09
same,relative viability,NCI-H1993; first compound 8 µM,0.889
same,relative viability,NCI-H2342; first compound 0.253 µM,0.464
same,relative viability,NCI-H2342; first compound 0.8 µM,0.415
same,relative viability,NCI-H2342; first compound 2.53 µM,0.437
same,relative viability,NCI-H2342; first compound 8 µM,0.399
same,relative viability,ChaGo-K-1; first compound 0.253 µM,0.387
same,relative viability,ChaGo-K-1; first compound 0.8 µM,0.407
same,relative viability,ChaGo-K-1; first compound 2.53 µM,0.421
same,relative viability,ChaGo-K-1; first compound 8 µM,0.478
same,relative viability,NCI-H2405; first compound 0.253 µM,0.866
same,relative viability,NCI-H2405; first compound 0.8 µM,0.877
same,relative viability,NCI-H2405; first compound 2.53 µM,0.879
same,relative viability,NCI-H2405; first compound 8 µM,0.86
same,relative viability,NCI-H23; first compound 0.253 µM,0.289
same,relative viability,NCI-H23; first compound 2.53 µM,0.3
same,relative viability,NCI-H23; first compound 8 µM,0.367
same,relative viability,NCI-H1734; first compound 0.253 µM,0.305
same,relative viability,NCI-H1734; first compound 0.8 µM,0.582
same,relative viability,NCI-H1734; first compound 2.53 µM,0.651
same,relative viability,NCI-H1734; first compound 8 µM,0.576
same,relative viability,NCI-H2228; first compound 0.253 µM,0.544
same,relative viability,NCI-H2228; first compound 0.8 µM,0.502
same,relative viability,NCI-H2228; first compound 2.53 µM,0.753
same,relative viability,NCI-H2228; first compound 8 µM,0.583
same,relative viability,NCI-H1975; first compound 0.253 µM,0.912
same,relative viability,NCI-H1975; first compound 0.8 µM,0.694
same,relative viability,NCI-H1975; first compound 2.53 µM,0.876
same,relative viability,NCI-H1975; first compound 8 µM,0.995
same,relative viability,HCC-78; first compound 0.253 µM,0.861
same,relative viability,HCC-78; first compound 0.8 µM,0.858
same,relative viability,HCC-78; first compound 2.53 µM,0.87
same,relative viability,HCC-78; first compound 8 µM,0.814
same,relative viability,NCI-H1355; first compound 0.253 µM,0.756
same,relative viability,NCI-H1355; first compound 0.8 µM,0.5
same,relative viability,NCI-H1355; first compound 2.53 µM,0.857
same,relative viability,NCI-H1355; first compound 8 µM,0.709
same,relative viability,LCLC-97TM1; first compound 0.253 µM,0.403
same,relative viability,LCLC-97TM1; first compound 0.8 µM,0.38
same,relative viability,LCLC-97TM1; first compound 2.53 µM,0.433
same,relative viability,LCLC-97TM1; first compound 8 µM,0.36
same,relative viability,NCI-H2126; first compound 0.253 µM,0.934
same,relative viability,NCI-H2126; first compound 0.8 µM,0.857
same,relative viability,NCI-H2126; first compound 2.53 µM,0.983
same,relative viability,NCI-H2126; first compound 8 µM,0.854
same,relative viability,NCI-H596; first compound 0.253 µM,0.758
same,relative viability,NCI-H596; first compound 0.8 µM,0.705
same,relative viability,NCI-H596; first compound 2.53 µM,0.77
same,relative viability,NCI-H596; first compound 8 µM,0.77
same,relative viability,HOP-62; first compound 0.253 µM,0.38
same,relative viability,HOP-62; first compound 0.8 µM,0.366
same,relative viability,HOP-62; first compound 2.53 µM,0.537
same,relative viability,HOP-62; first compound 8 µM,0.406
same,relative viability,NCI-H358; first compound 0.8 µM,0.607
same,relative viability,NCI-H358; first compound 2.53 µM,0.652
same,relative viability,NCI-H358; first compound 8 µM,0.665
same,relative viability,NCI-H1703; first compound 0.253 µM,0.398
same,relative viability,NCI-H1703; first compound 0.8 µM,0.521
same,relative viability,NCI-H1703; first compound 2.53 µM,0.478
same,relative viability,NCI-H1703; first compound 8 µM,0.433
same,relative viability,NCI-H460; first compound 0.253 µM,0.394
same,relative viability,NCI-H460; first compound 0.8 µM,0.397
same,relative viability,NCI-H460; first compound 2.53 µM,0.438
same,relative viability,NCI-H460; first compound 8 µM,0.374
same,relative viability,PC-3 [JPC-3]; first compound 0.253 µM,1.12
same,relative viability,PC-3 [JPC-3]; first compound 0.8 µM,1.1
same,relative viability,PC-3 [JPC-3]; first compound 2.53 µM,1.32
same,relative viability,PC-3 [JPC-3]; first compound 8 µM,1.38
same,relative viability,LK-2; first compound 0.253 µM,0.881
same,relative viability,LK-2; first compound 0.8 µM,0.413
same,relative viability,LK-2; first compound 2.53 µM,0.571
same,relative viability,LK-2; first compound 8 µM,0.387
same,relative viability,NCI-H1944; first compound 0.253 µM,0.43
same,relative viability,NCI-H1944; first compound 2.53 µM,0.443
same,relative viability,NCI-H1944; first compound 8 µM,0.415
same,relative viability,NCI-H1648; first compound 0.253 µM,0.883
same,relative viability,NCI-H1648; first compound 2.53 µM,1.12
same,relative viability,NCI-H1648; first compound 8 µM,0.922
same,relative viability,NCI-H1755; first compound 0.253 µM,0.86
same,relative viability,NCI-H1755; first compound 0.8 µM,0.861
same,relative viability,NCI-H1755; first compound 2.53 µM,0.899
same,relative viability,NCI-H1755; first compound 8 µM,0.777
same,relative viability,NCI-H1650; first compound 0.253 µM,0.681
same,relative viability,NCI-H1650; first compound 0.8 µM,0.712
same,relative viability,NCI-H1650; first compound 2.53 µM,0.945
same,relative viability,NCI-H1650; first compound 8 µM,0.933
same,relative viability,NCI-H727; first compound 0.253 µM,0.732
same,relative viability,NCI-H727; first compound 0.8 µM,0.706
same,relative viability,NCI-H727; first compound 2.53 µM,0.633
same,relative viability,NCI-H727; first compound 8 µM,0.7
